Experiments:
[1] = Thermodynamic aqueous solubility by HPLC; type: physicochemical; settings: purified water; for Aqueous solubility: pH 7, 25° C., 24 hours, 20 mg in 1 ml
Experimental: Thermodynamic Aqueous Solubility by HPLC: Aqueous solubility was determined by suspending sufficient compound in HPLC grade water to give a maximum final concentration of ≧20 mg ml^−1 of the parent compound. The suspension was equilibrated at 25° C. for 24 hours. The suspension was then filtered through a filter into a HPLC vial. The filtrate was then diluted by an appropriate factor. Quantification was executed by HPLC with reference to a standard solution of approximately 0.5 mg ml^−1 in Acetonitrile:Water: (1:1). Different volumes of the standard, diluted and undiluted sample solutions were injected. The solubility was calculated using the peak areas determined by integration of the peak found at the same retention time as the principal peak in the standard injection.
Analysis was performed on an Agilent 1100 series liquid chromatography, equipped with a UV detector (DAD or VWD) @254 nm and using Chemstation Rev.B.01.03 software for data processing. Chemical purity determination by HPLC.
As amorphous material and Form I were in hand, both samples were exposed to a straight forward aqueous solubility study in purified water at 25° C. This experiment was performed as it was unknown whether crystalline or amorphous material was initially isolated in-house during a previous synthesis campaign.
• A suspension of 20 mg of the candidate was mixed in purified water (1 ml, pH 7). The suspension was equilibrated at 25° C. for 24 hours. The suspension was then filtered into an HPLC vial and the filtrate then diluted by an appropriate factor with quantification being executed by HPLC with reference to a standard solution.

[2] = Slurry maturation (heat/cool cycles), XRPD; type: physicochemical; settings: 24 solvents, cycled 20° C./50° C., 8 hour periods, 4 days
Experimental: 24× Slurry maturations were performed in an attempt to stress the current crystalline solid into undergoing form transformation.
• Some 20 mg of material was agitated in glass tubes in approximately 30 volumes of solvent and cycled between isothermal periods (8 hours) of 20° C. and 50° C. After 4 days of cycling, the solids were filtered off and dried in vacuo at 45° C. prior to analysis by XRPD. All results were compared to the starting material, RPL554 (Form I); see Table 4.

[3] = Applied pressure (100 KN), XRPD and DSC; type: physicochemical; settings: overnight, 10 mg
Experimental: Applied pressure (100 KN): 10 mg of RPL554 was left in a pressing disc system overnight, forming a fine and uniform disc with a thickness of less than 0.1 mm. The disc was gently ground and analysed by XRPD (FIG. 13).

[4] = Crash cooling of a melt, LC/HPLC analysis (stability at temperature); type: physicochemical
Experimental: As there was historical experimental proof of generating amorphous material by heating RPL554 Form I up to 245° C. and rapidly cooling the melt, a repeat of this method was performed (TGA basis) and produced the same, clear, yellow, glass like material.
A proposed glass transition can be observed at approximately 120° C., with no formal recrystallisation observed. While this experiment was running, the sample was submitted for LC analysis, as stability at temperature was known to be a potential issue (observation of TGA). […] The experiment was repeated at a lower temperature (240° C.), this trying to avoid decomposition and thus return a better profile in terms of purity. LC analysis returned a similar profile of very low purity and various secondary products. It was therefore apparent that amorphous material would not be generated in this manner.

[5] = polymorph A (marketed) vs form B; cited from earlier work

COc1cc2c(cc1OC)-c1c/c(=N\c3c(C)cc(C)cc3C)n(CCNC(N)=O)c(=O)n1CC2 [JN376F]
Aqueous solubility compared with Form I ([1]; 25° C.): more soluble than Form I
Aqueous solubility [1]: 30 µg/mL

COc1cc2c(cc1OC)-c1c/c(=N\c3c(C)cc(C)cc3C)n(CCNC(N)=O)c(=O)n1CC2 [RPL554, N-{2-[(2E)-2-(mesitylimino)-9,10-dimethoxy-4-oxo-6,7-dihydro-2H-pyrimido[6,1-a]-isoquinolin-3 (4H)-yl]ethyl}urea]
Aqueous solubility [1]: 1 µg/mL
Form change on slurry maturation (XRPD) [2]: extremely resilient to change
Form change under applied pressure (XRPD) [3]: generates an amorphous phase
Product by HPLC analysis after crash cooling a melt ([4]; crash cooled melt, amorphous by XRPD): < 20%
Starting material remaining by LC after crash cooled melt ([4]; heated up to 245° C. and rapidly cooled): 26%

CCCCCCCCCCCCCCCC(=O)OC[C@@H](NC(=O)C(Cl)Cl)[C@H](O)c1ccc([N+](=O)[O-])cc1 [Chloramphenicol-3-palmitate]
Difference in bio-activity between form A and form B [5]: eight
